Reference: patent US9943844B2, “Microfluidic evaluation system for evaluating the efficacy of an antiperspirant product and associated method” (L'OREAL, priority 2013, dated 2018)
Like-named read-outs stand apart in the source and are kept apart here.

Experiments:
[1] = Microfluidic evaluation of antiperspirant efficacy: clog formation at the confluence of secondary (sweat) channel and main channel, seen by phase contrast microscopy
Source text: The invention also has for object a method for evaluating the efficacy of an antiperspirant product comprising the following steps: • supplying an evaluation system 1 such as described hereinabove; • injecting natural and/or artificial sweat into the or each secondary channel 9 of the microfluidic chip 5 from the sweat source 3; • injecting at least one antiperspirant product into the main channel 7; • determining at least one physical-chemical parameter that represents the efficacy of the antiperspirant agent considered; and • evaluating the efficacy of the antiperspirant product using the determined physical-chemical parameter.
The step of filling is followed by a step of distributing, during which the antiperspirant product flowing in the main channel 7 and the sweat flowing in the secondary channel or channels 9 react together, in particular on the zones of confluence between the sweat flowing in the secondary channel or channels 9 and the antiperspirant product flowing in the main channel 7. According to the efficacy of the antiperspirant product, during this step of distributing, the interaction between the sweat and the antiperspirant product leads to the formation of clogs at the outlet 25 of the secondary channel or channels 9.
These values can in particular be Boolean values. For example, the physical-chemical parameter measured is the formation or not of a clog, and it is concluded that the antiperspirant product tested is effective if the formation of a clog is observed during the method. If no formation of a clog is observed, non-efficacy is concluded for the antiperspirant product.
These tests were conducted with the microfluidic chip 4 described hereinabove, and by using as imaging tool 45 a phase contrast microscope.
The injection of the sweat and of the antiperspirant product was carried out according to the sequence described in the table 1.
It is considered that the antiperspirant product is not effective when no clog is formed in the secondary channel 9. In this case, the sweat of the secondary channel 9 can freely flow in the main channel 7.

[2] = cited from earlier work

Row | Substance | Evaluation result [1] | antiperspirant efficacy in vivo ([2]; in vivo) | Evaluation result ([1]; concentration 5%, injection sequence of table 1, effective = formation of a clog in secondary channel preventing sweat flow, not effective = no clog formed) | Evaluation result ([1]; concentration 15%, injection sequence of table 1, effective = formation of a clog in secondary channel preventing sweat flow, not effective = no clog formed) | antiperspirant efficacy in vivo ([2]; known to be (not) effective antiperspirant agent in vivo)
1 | Aluminum Zirconium Glycine [AZG] | Effective | effective | – | – | –
2 | aluminum chlorohydrate [ACH] | – | – | Effective | Effective | effective
